SMILES strings stand for the structures.

Usually DC50 stands for the concentration giving 50% degradation. The term Dmax denotes the greatest extent of degradation seen.

In test [1] the target is T1, IRAK4 (Homo sapiens, UniProt Q9NWZ3).
T1 construct: endogenous in cells; host or cells: Karpas299
T1 sequence (Q9NWZ3 1-460): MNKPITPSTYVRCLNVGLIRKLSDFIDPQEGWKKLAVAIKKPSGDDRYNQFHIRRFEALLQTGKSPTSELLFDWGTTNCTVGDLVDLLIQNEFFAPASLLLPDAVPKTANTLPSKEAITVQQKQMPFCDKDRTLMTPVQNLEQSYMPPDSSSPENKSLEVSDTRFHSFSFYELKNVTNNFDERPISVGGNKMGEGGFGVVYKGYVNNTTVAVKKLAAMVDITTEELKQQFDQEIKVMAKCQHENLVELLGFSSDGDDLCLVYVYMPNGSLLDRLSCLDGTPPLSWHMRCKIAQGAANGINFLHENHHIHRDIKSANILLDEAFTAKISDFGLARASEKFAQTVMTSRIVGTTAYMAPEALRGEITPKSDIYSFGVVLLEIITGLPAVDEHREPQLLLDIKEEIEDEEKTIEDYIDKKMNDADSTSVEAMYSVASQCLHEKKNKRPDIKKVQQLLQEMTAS
The test is described as follows: IRAK4 Degradation Assay with Human Serum (Karpas299, HTRF/TR-FRET). The test is classed as cell-based. To be noted: Karpas-299 in human serum, 24 hrs treatment; for DC50: read-out: IRAK4 degradtion with human serum assay DC50; for Dmax: read-out: IRAK4 degradtion with human serum assay Dmax (%). The gist of the method:
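Remaining IRAK4 measured by TR-FRET immunoassay on lysates of Karpas299 cells exposed 24 h to compound dilution series in human serum AB. DC50 derived from a Hill-slope fit of % degradation versus concentration.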
In general terms: In TR-FRET formats the signal depends on donor and acceptor labels being close together.

The target in test [2] is T1, IRAK4. The test can be described thus: IRAK4 Degradation Assay (Karpas299, HTRF/TR-FRET). To be noted: Karpas-299 cells, 24 h treatment; for Dmax: maximum percentage of degradation, read-out: IRAK4 in Karpas-299 (24 h) Dmax (%); for DC50: read-out: IRAK4 in Karpas-299 (24 h) DC50. The format is cell-based. In outline: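 Compound potency as DC50 (IC50) came from four-parameter fits of percent IRAK4 degradation. IRAK4 was measured by HTRF (665/620 nm) in lysates of Karpas299 cells seeded at 0.2 million per well. Cells had been treated with compound dilutions for 5 or 24 h.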

For `C[C@H]1CN(CC2CN(c3cc(F)c([C@H]4CCC(=O)NC4=O)c(F)c3)C2)CCN1[C@H]1CC[C@H](n2cc3cc(NC(=O)c4ccc5cc(C#N)cnn45)c(C(C)(C)O)cc3n2)CC1` [Example 306, 3-cyano-N-(2-((1S,4r)-4-((S)-4-((1-(4-((R)-2,6-dioxopiperidin-3-yl)-3,5-difluorophenyl)azetidin-3-yl)methyl)-2-methylpiperazin-1-yl)cyclohexyl)-6-(2-hydroxypropan-2-yl)-2H-indazol-5-yl)pyrrolo[1,2-b]pyridazine-7-carboxamide], the DC50 is 8.3 nM at IRAK4 [1] and 1.3 nM at IRAK4 [2]. Further, the figures for the Dmax on IRAK4 [1] and on IRAK4 [2] were 100% and 98%, respectively.

`C[C@H]1CN(C2CCN(c3cc(F)c([C@H]4CCC(=O)NC4=O)c(F)c3)CC2)CCN1[C@H]1CC[C@H](n2cc3cc(NC(=O)c4ccc5cc(C#N)cnn45)c(C(C)(C)O)cc3n2)CC1` [Example 307, 3-cyano-N-(2-((1S,4r)-4-((S)-4-(1-(4-((R)-2,6-dioxopiperidin-3-yl)-3,5-difluorophenyl)piperidin-4-yl)-2-methylpiperazin-1-yl)cyclohexyl)-6-(2-hydroxypropan-2-yl)-2H-indazol-5-yl)pyrrolo[1,2-b]pyridazine-7-carboxamide]: at IRAK4 [1], the half-maximal degradation concentration (DC50) is 3.6 nM and the Dmax came to 99%. In addition, on IRAK4 [2], the Dmax came out at 100% and the DC50 came out at 0.5 nM.

Regarding `C[C@H]1CN(C2CN(c3cc(F)c([C@H]4CCC(=O)NC4=O)c(F)c3)C2)CCN1[C@H]1CC[C@H](n2cc3cc(NC(=O)c4ccc5cc(C#N)cnn45)c(C(C)(C)O)cc3n2)CC1` [Example 308, 3-cyano-N-(2-((1S,4r)-4-((S)-4-(1-(4-((R)-2,6-dioxopiperidin-3-yl)-3,5-difluorophenyl)azetidin-3-yl)-2-methylpiperazin-1-yl)cyclohexyl)-6-(2-hydroxypropan-2-yl)-2H-indazol-5-yl)pyrrolo[1,2-b]pyridazine-7-carboxamide], on IRAK4 [1], the DC50 worked out at 8.9 nM and the Dmax turned out to be 99%. At IRAK4 [2], the Dmax turned out to be 97% and the DC50 was 1.5 nM.

Consider `C[C@@H]1CN([C@H]2CC[C@H](n3cc4cc(NC(=O)c5ccc6cc(C#N)cnn56)c(C(C)(C)O)cc4n3)CC2)CCN1CC1CN(c2cc(F)c([C@H]3CCC(=O)NC3=O)c(F)c2)C1` [Example 310, 3-cyano-N-(2-((1R,4r)-4-((R)-4-((1-(4-((R)-2,6-dioxopiperidin-3-yl)-3,5-difluorophenyl)azetidin-3-yl)methyl)-3-methylpiperazin-1-yl)cyclohexyl)-6-(2-hydroxypropan-2-yl)-2H-indazol-5-yl)pyrrolo[1,2-b]pyridazine-7-carboxamide], for which, on IRAK4 [1], the 50% degradation concentration (DC50) was 3.2 nM and the Dmax was found to be 102%. Besides, at IRAK4 [2], the Dmax stood at 98% and the DC50 is 0.6 nM.

With `C[C@H]1CN([C@H]2CC[C@H](n3cc4cc(NC(=O)c5ccc6cc(C#N)cnn56)c(C(C)(C)O)cc4n3)CC2)CCN1C(=O)C1CN(c2cc(F)c(N3CCC(=O)NC3=O)c(F)c2)C1` [Example 312, 3-cyano-N-(2-((1S,4r)-4-((S)-4-(1-(4-(2,4-dioxotetrahydropyrimidin-1(2H)-yl)-3,5-difluorophenyl)azetidine-3-carbonyl)-3-methylpiperazin-1-yl)cyclohexyl)-6-(2-hydroxypropan-2-yl)-2H-indazol-5-yl)pyrrolo[1,2-b]pyridazine-7-carboxamide], the DC50 at IRAK4 [1] was determined as 34 nM; on IRAK4 [2], 2.4 nM. The figures for the Dmax on IRAK4 [1] and at IRAK4 [2] were 99% and 97%, respectively.

`COC[C@H]1CN([C@H]2CC[C@H](n3cc4cc(NC(=O)c5ccc6cc(C#N)cnn56)c(C(C)(C)O)cc4n3)CC2)CCN1C(=O)[C@@H]1CCN(c2cc(F)c([C@H]3CCC(=O)NC3=O)c(F)c2)C1` [Example 313, 3-cyano-N-(2-((1R,4r)-4-((R)-4-((R)-1-(4-((R)-2,6-dioxopiperidin-3-yl)-3,5-difluorophenyl)pyrrolidine-3-carbonyl)-3-(methoxymethyl)piperazin-1-yl)cyclohexyl)-6-(2-hydroxypropan-2-yl)-2H-indazol-5-yl)pyrrolo[1,2-b]pyridazine-7-carboxamide]: at IRAK4 [1], the 50% degradation concentration (DC50) is 24 nM and the Dmax came to 96%. Moreover, on IRAK4 [2], the Dmax stood at 98% and the DC50 worked out at 0.3 nM.

Consider `COC[C@H]1CN([C@H]2CC[C@H](n3cc4cc(NC(=O)c5ccc6cc(C#N)cnn56)c(C(C)(C)O)cc4n3)CC2)CCN1C(=O)[C@@H]1CCN(c2cc(F)c(N3CCC(=O)NC3=O)c(F)c2)C1` [Example 316, 3-cyano-N-(2-((1R,4r)-4-((R)-4-((R)-1-(4-(2,4-dioxotetrahydropyrimidin-1(2H)-yl)-3,5-difluorophenyl)pyrrolidine-3-carbonyl)-3-(methoxymethyl)piperazin-1-yl)cyclohexyl)-6-(2-hydroxypropan-2-yl)-2H-indazol-5-yl)pyrrolo[1,2-b]pyridazine-7-carboxamide], for which, on IRAK4 [1], the 50% degradation concentration (DC50) was determined as 35 nM and the Dmax amounted to 95%. Besides, on IRAK4 [2], the Dmax was determined as 97% and the half-maximal degradation concentration (DC50) is 1.6 nM.

For the compound `COC[C@H]1CN([C@H]2CC[C@H](n3cc4cc(NC(=O)c5ccc6cc(C#N)cnn56)c(C(C)(C)O)cc4n3)CC2)CCN1C1CN(c2cc(F)c([C@H]3CCC(=O)NC3=O)c(F)c2)C1` [Example 318, 3-cyano-N-(2-((1R,4r)-4-((R)-4-(1-(4-((R)-2,6-dioxopiperidin-3-yl)-3,5-difluorophenyl)azetidin-3-yl)-3-(methoxymethyl)piperazin-1-yl)cyclohexyl)-6-(2-hydroxypropan-2-yl)-2H-indazol-5-yl)pyrrolo[1,2-b]pyridazine-7-carboxamide], on IRAK4 [1], the DC50 came out at 39 nM and the Dmax amounted to 95%. Further, on IRAK4 [2], the Dmax was 91% and the 50% degradation concentration (DC50) turned out to be 1.1 nM.

On to `COC[C@H]1CN(C2CN(c3cc(F)c([C@H]4CCC(=O)NC4=O)c(F)c3)C2)CCN1[C@H]1CC[C@H](n2cc3cc(NC(=O)c4ccc5cc(C#N)cnn45)c(C(C)(C)O)cc3n2)CC1` [Example 323, 3-cyano-N-(2-((1R,4r)-4-((R)-4-(1-(4-((R)-2,6-dioxopiperidin-3-yl)-3,5-difluorophenyl)azetidin-3-yl)-2-(methoxymethyl)piperazin-1-yl)cyclohexyl)-6-(2-hydroxypropan-2-yl)-2H-indazol-5-yl)pyrrolo[1,2-b]pyridazine-7-carboxamide], for which the DC50 at IRAK4 [1] was 14 nM; on IRAK4 [2] it was 2.1 nM. Further, the Dmax at IRAK4 [1] stood at 98%; at IRAK4 [2] it was 94%.

As to `COC[C@H]1CN(C2CCN(c3cc(F)c([C@H]4CCC(=O)NC4=O)c(F)c3)CC2)CCN1[C@H]1CC[C@H](n2cc3cc(NC(=O)c4ccc5cc(C#N)cnn45)c(C(C)(C)O)cc3n2)CC1` [Example 324, 3-cyano-N-(2-((1R,4r)-4-((R)-4-(1-(4-((R)-2,6-dioxopiperidin-3-yl)-3,5-difluorophenyl)piperidin-4-yl)-2-(methoxymethyl)piperazin-1-yl)cyclohexyl)-6-(2-hydroxypropan-2-yl)-2H-indazol-5-yl)pyrrolo[1,2-b]pyridazine-7-carboxamide], on IRAK4 [1], the half-maximal degradation concentration (DC50) amounted to 23 nM and the Dmax was found to be 99%. On IRAK4 [2], the Dmax stood at 95% and the 50% degradation concentration (DC50) is 1 nM.

`COC[C@@H]1CN(C2CN(c3cc(F)c([C@H]4CCC(=O)NC4=O)c(F)c3)C2)CCN1[C@H]1CC[C@H](n2cc3cc(NC(=O)c4ccc5cc(C#N)cnn45)c(C(C)(C)O)cc3n2)CC1` [Example 327, 3-cyano-N-(2-((1S,4r)-4-((S)-4-(1-(4-((R)-2,6-dioxopiperidin-3-yl)-3,5-difluorophenyl)azetidin-3-yl)-2-(methoxymethyl)piperazin-1-yl)cyclohexyl)-6-(2-hydroxypropan-2-yl)-2H-indazol-5-yl)pyrrolo[1,2-b]pyridazine-7-carboxamide]: the figures for the DC50 at IRAK4 [1] and at IRAK4 [2] were 4.2 nM and 0.9 nM, respectively. Moreover, the values for the Dmax on IRAK4 [1] and on IRAK4 [2] were 95% and 90%, respectively.

For the compound `COC[C@@H]1CN(C2CCN(c3cc(F)c([C@H]4CCC(=O)NC4=O)c(F)c3)CC2)CCN1[C@H]1CC[C@H](n2cc3cc(NC(=O)c4ccc5cc(C#N)cnn45)c(C(C)(C)O)cc3n2)CC1` [Example 328, 3-cyano-N-(2-((1S,4r)-4-((S)-4-(1-(4-((R)-2,6-dioxopiperidin-3-yl)-3,5-difluorophenyl)piperidin-4-yl)-2-(methoxymethyl)piperazin-1-yl)cyclohexyl)-6-(2-hydroxypropan-2-yl)-2H-indazol-5-yl)pyrrolo[1,2-b]pyridazine-7-carboxamide], at IRAK4 [1], the DC50 was found to be 19 nM and the Dmax came out at 101%. For the same compound, at IRAK4 [2], the Dmax worked out at 98% and the 50% degradation concentration (DC50) came out at 0.8 nM.

Values taken from patent US20250195513A1, “DEGRADATION OF IRAK4 BY CONJUGATION OF IRAK4 INHIBITORS WITH E3 LIGASE LIGAND AND METHODS OF USE” (BeiGene, Ltd., priority 2022, published 2025).
